This passage reports IC50 results from patent US20170000749A1, “Methods for Treating Cognitive Disorders Using Inhibitors of Histone Deacetylase” (Forum Pharmaceuticals, Inc., priority 2008, published 2017).

The target of assay [1] is one or more of HDAC-1, HDAC-2, HDAC-3, HDAC-4, HDAC-5, HDAC-6, HDAC-7, HDAC-8, HDAC-9, HDAC-10 and HDAC-11. Briefly: Inhibition of Histone Deacetylase Enzymatic Activity (Boc-Lys(Ac)-AMC substrate, Fluor-de-Lys developer). The format is biochemical. The conditions noted are these: read-out: HDAC Inhibition (IC50 μM) HDAC Enzyme. On the procedure: The following protocol is used to assay the compounds of the disclosure.
The mixture is pre-incubated for 5 minutes at room temperature. The reaction is started by bringing the temperature to 37° C. and adding 16 μl substrate. Total reaction volume is 50 μl.
In the Tables 8, 9 and 10, A≦0.05 μM; 0.05 μM<B≦0.1 μM; 0.1 μM<C≦1 μM; and 1 μM<D≦10 μM.

The subject of assay [2] is HDAC activity in primary mouse cortical cultures. In words: Whole-Cell Histone Deacetylase (HDAC) Inhibition Assay in Primary Mouse Cortical Cultures. Type of assay: cell-based. The protocol: Primary neocortical cultures are established through the dissection of the neocortex from E17 embryos harvested from time-pregnant Balb/C mice. Following dissection, the neocortical tissue specimens undergo digestion by incubation at 37° C. for 10 minutes in dissection medium (1×HBSS/10 mM HEPES/1 mM Sodium Pyruvate) supplemented with (0.25%) Trypsin and (0.1%) DNase I. Digested tissue is washed and resuspended in plating medium (NeuroBasal/10% HS/0.5 mM L-Glutamine (Invitrogen Corporation)) for trituration. Additional plating medium is added, and the contents are passed over a 70 um cell-strainer. The cell-density is quantified using a hemacytometer, and dilutions are made to allow for the plating of 50000 cells/well/100 uL in 96-well PDL-coated plates. Plates are incubated for 4-5 hours in 37° C./5% CO2-incubator, after which time the entire volume is exchanged to feeding medium (NeuroBasal/2% B-27 Serum-free supplement/0.5 mM L-Glutamine/1% Penicillin-Streptomycin (Invitrogen Corporation)). The cultures undergo two 50% fresh feeding medium exchanges at 3 days in vitro (DIV3), and again at DIV7.
Compounds for testing are resuspended in dimethyl sulphoxide (DMSO), and further diluted in DMSO for a ten-point dose-response curve, with appropriate controls. Each master plate is assayed in triplicate. […] Three DIV9 culture plates are leveled to 50 uL/well, onto which each has overlaid 50 uL/well of the diluted daughter plate. The plates are returned to the 37° C./5% CO2-incubator for 16-18 hours.
The next step of the assay involves the exposure of a HDAC colorimetric substrate, comprising an acetylated lysine side chain, to the compound-treated neuronal cultures. Based on the ability of the compound to inhibit HDAC activity in the neuronal cultures, the substrate is deacetylated by HDACs, and subsequently sensitized. […] Compound-incubated culture plates are again leveled to 50 uL/well and 2 uL/well of 7.5 mM BOC-Lys (Ac)-AMC substrate is added and thoroughly mixed. Plates are returned to the 37° C./5% CO2-incubator for 1 hour.
The final addition to the culture plates entails treatment with a Fluor de Lys™-based developer (BIOMOL Research Laboratories, Inc.) to produce a fluorophore, which is analyzed using a spectrophotometer. The developer solution (1×Fluor de Lys™/1% NP-40/1 uM TSA in HDAC Buffer Solution) is prepared, and 50 uL/well is added to each of the wells of the culture plates. […] The plates are returned to the 37° C./5% CO2-incubator for 10-15 minutes, after which time, they are removed and set in the dark at room temperature for 5-10 minutes.
Primary neocortical cultures were established through the dissection of the neocortex from E17 embryos harvested from time-pregnant Balb/C mice. Following dissection, the neocortical tissue specimens underwent digestion by incubation at 37° C. for 10 minutes in dissection medium (1×HBSS/10 mM HEPES/1 mM Sodium Pyruvate) supplemented with (0.25%) Trypsin and (0.1%) DNase I. Digested tissue was washed and resuspended in plating medium (NeuroBasal/10% HS/0.5 mM L-Glutamine (Invitrogen Corporation)) for trituration. Additional plating medium was added, and the contents passed over a 70 um cell-strainer. The cell-density was quantified using a hemacytometer, and dilutions made to allow for the plating of 50000 cells/well/100 uL in 96-well PDL-coated plates. Plates were incubated for 4-5 hours in 37° C./5% CO2-incubator, after which time the entire volume was exchanged to feeding medium (NeuroBasal/2% B-27 Serum-free supplement/0.5 mM L-Glutamine/l % Penicillin-Streptomycin (Invitrogen Corporation)). The cultures underwent two 50% fresh feeding medium exchanges at 3 days in vitro (DIV3), and again at DIV7.
Compounds for testing were resuspended in dimethyl sulphoxide (DMSO), and further diluted in DMSO for a ten-point dose-response curve, with appropriate controls. Each master plate was assayed in triplicate.

The mark [3] stands for this setting: whole-cell (WC), mouse cortical neurons, Table 8, read-out: HDAC Inhibition (IC50 μM) WC mouse cortical neurons.
The mark [4] stands for this setting: whole-cell (WC), mouse cortical neurons, Table 10, read-out: HDAC Inhibition (IC50 μM) WC mouse cortical neurons.
Setting [5] is: whole-cell (WC), mouse cortical neurons, Table 9, read-out: HDAC Inhibition (IC50 μM) WC mouse cortical neurons.

SMILES strings stand for the structures. Read-outs that look alike come from different tables or passages of the source.

Usually IC50 stands for the concentration needed to halve the response being measured. In the case of `O=C(NO)c1ccc(C2=Nc3ccccc3Oc3c(OCCN4CCOCC4)cccc32)cc1` [(Z)—N-hydroxy-4-(4-(2-morpholinoethoxy)dibenzo[b,f][1,4]oxazepin-11-yl)benzamide], the IC50 in assay [1] (Table 8) is less than 0.05 µM; in assay [2] (setting [3]) it was less than 1 µM.
As for `O=C(NO)c1cnc(N2CCCN(C(=O)OCc3ccccc3)CC2)nc1` [benzyl 4-(5-(hydroxycarbamoyl)pyrimidin-2-yl)-1,4-diazepane-1-carboxylate], the IC50 in assay [1] (Table 10) was 0.05 to 0.1 µM; in assay [2] (setting [4]) it was 1 to 5 µM.
Regarding `O=C(/C=C/c1ccc2c(c1)NC(=O)CN=C2c1ccccc1)NO` [(E)-N-hydroxy-3-((Z)-2-oxo-5-phenyl-2,3-dihydro-1H-benzo[e][1,4]diazepin-8-yl)acrylamide], the IC50 in assay [1] (Table 10) was 0.05 to 0.1 µM; in assay [2] (read-out: HDAC Inhibition (IC50 μM) WC mouse cortical neurons, Table 10), 1 to 5 µM.
Take `O=C(CCCCCCCON=C1c2ccccc2CCc2ccccc21)NO`: the results for the concentration for half-maximal inhibition (IC50) in assay [1] (Table 10) and in assay [2] (setting [4]) were 0.1 to 1 µM and 1 to 5 µM, respectively.
With `O=C(NO)c1ccc(N2C[C@H]3C[C@@H]2CN3c2cc(C(F)(F)F)ccn2)cc1` [N-hydroxy-4-((1R,4R)-5-(4-(trifluoromethyl)pyridin-2-yl)-2,5-diazabicyclo[2.2.1]heptan-2-yl)benzamide], the figures for the IC50 in assay [1] (Table 9) and in assay [2] (setting [5]) were 1 to 10 µM and 5 to 15 µM, respectively.
In the case of `O=C(/C=C/c1ccc(CN2C(=O)c3cccnc3N(C3CC3)c3ccccc32)cc1)NO` [(E)-3-(4-((11-cyclopropyl-5-oxo-5H-benzo[b]pyrido[2,3-e][1,4]diazepin-6(11H)-yl)methyl)phenyl)-N-hydroxyacrylamide], the figures for the IC50 in assay [1] (Table 10) and in assay [2] (setting [4]) were less than 0.05 µM and less than 1 µM, respectively.
With `O=C(CCCCCN1c2ccccc2CCc2ccccc21)NO` [6-(10,11-dihydro-5H-dibenzo[b,f]azepin-5-yl)-N-hydroxyhexanamide], the values for the IC50 in assay [1] (Table 10) and in assay [2] (setting [4]) were less than 0.05 µM and 1 to 5 µM, respectively.
Regarding `Cc1cccc(N2CC3CC2CN3c2ccc(C(=O)NO)cc2)c1` (stereo not drawn) [N-hydroxy-4-(5-m-tolyl-2,5-diazabicyclo[2.2.1]heptan-2-yl)benzamide], the IC50 in assay [1] (Table 9) lay in the range of 0.1 to 1 µM; in assay [2] (setting [5]), 1 to 5 µM.
Turning to `O=C(CCCON=C1c2ccccc2CCc2ccccc21)NO`, the IC50 in assay [1] (Table 10) was in the range of 0.1 to 1 µM; in assay [2] (setting [4]) it was 5 to 15 µM.
As to `Cc1ccc(N2C[C@H]3C[C@@H]2CN3c2ncc(C(=O)NO)cn2)cc1` [N-hydroxy-2-((1R,4R)-5-p-tolyl-2,5-diazabicyclo[2.2.1]heptan-2-yl)pyrimidine-5-carboxamide], the IC50 in assay [1] (Table 9) is less than 0.05 µM; in assay [2] (setting [5]), less than 1 µM.
As for `O=C(/C=C/c1ccc(CNC2c3ccccc3CCc3ccccc32)cc1)NO`, the IC50 in assay [1] (Table 10) fell in the range of 0.05 to 0.1 µM; in assay [2] (setting [4]), 5 to 15 µM.
Take `CN(C)Cc1cccc(N2C[C@@H]3C[C@H]2CN3c2ncc(C(=O)NO)cn2)c1` [2-((1S,4S)-5-(3-((dimethylamino)methyl)phenyl)-2,5-diazabicyclo[2.2.1]heptan-2-yl)-N-hydroxypyrimidine-5-carboxamide]: the IC50 in assay [1] (Table 9) was less than 0.05 µM; in assay [2] (setting [5]), less than 1 µM.
Take `COc1cccc(N2CC3CC2CN3c2ccc(C(=O)NO)cc2)c1` (stereo not drawn) [N-hydroxy-4-(5-(3-methoxyphenyl)-2,5-diazabicyclo[2.2.1]heptan-2-yl)benzamide]: the IC50 in assay [1] (Table 9) fell in the range of 0.1 to 1 µM; in assay [2] (setting [5]) it was 1 to 5 µM.
`O=C(NO)c1cnc(NC(c2ccccc2)c2ccccc2)nc1` [2-(benzhydrylamino)-N-hydroxypyrimidine-5-carboxamide]: the concentration for half-maximal inhibition (IC50) is less than 0.05 µM in assay [1] (Table 10) and less than 1 µM in assay [2] (setting [4]).
In the case of `O=C(NO)c1cnc(N2C[C@@H]3C[C@H]2CN3c2noc3ccccc23)nc1` [2-((1S,4S)-5-(benzo[d]isoxazol-3-yl)-2,5-diazabicyclo[2.2.1]heptan-2-yl)-N-hydroxypyrimidine-5-carboxamide], the IC50 in assay [1] (Table 9) was less than 0.05 µM; in assay [2] (setting [5]), less than 1 µM.
Regarding `O=C(NO)c1ccc(OCC(=O)N2Cc3ccccc3Oc3ccccc32)cc1`, the 50% inhibitory concentration (IC50) is 0.1 to 1 µM in assay [1] (Table 10) and 1 to 5 µM in assay [2] (setting [4]).
Turning to `CC(C)COC(=O)N1C[C@@H]2C[C@H]1CN2c1ncc(C(=O)NO)cn1` [(1S,4S)-isobutyl 5-(5-(hydroxycarbamoyl)pyrimidin-2-yl)-2,5-diazabicyclo[2.2.1]heptane-2-carboxylate], the IC50 in assay [1] (Table 9) was less than 0.05 µM; in assay [2] (setting [5]) it was less than 1 µM.
As to `COc1cccc2c1Oc1ccccc1N=C2c1ccc(C(=O)NO)cc1` [(Z)—N-hydroxy-4-(4-methoxydibenzo[b,f][1,4]oxazepin-11-yl)benzamide], the figures for the half-inhibitory concentration (IC50) in assay [1] (Table 8) and in assay [2] (setting [3]) were 0.05 to 0.1 µM and 1 to 5 µM, respectively.
With `O=C(NO)c1cnc(N2C[C@@H]3C[C@H]2CN3c2ccc(C(F)(F)F)cc2F)nc1` [2-((1S,4S)-5-(2-fluoro-4-(trifluoromethyl)phenyl)-2,5-diazabicyclo[2.2.1]heptan-2-yl)-N-hydroxypyrimidine-5-carboxamide], the IC50 in assay [1] (Table 9) is less than 0.05 µM; in assay [2] (setting [5]), 1 to 5 µM.
Take `O=C(/C=C/c1ccc(CN2c3ccccc3C=Cc3ccccc32)cc1)NO` [(E)-3-(4-(((Z)-5H-dibenzo[b,f]azepin-5-yl)methyl)phenyl)-N-hydroxyacrylamide]: the IC50 in assay [1] (Table 10) was 0.05 to 0.1 µM; in assay [2] (setting [4]) it was 1 to 5 µM.
Turning to `N#Cc1cccc(N2CC3CC2CN3c2ncc(C(=O)NO)cn2)c1` (stereo not drawn) [2-(5-(3-cyanophenyl)-2,5-diazabicyclo[2.2.1]heptan-2-yl)-N-hydroxypyrimidine-5-carboxamide], the IC50 was less than 0.05 µM in assay [1] (Table 9) and less than 1 µM in assay [2] (setting [5]).
Regarding `O=C(NO)c1cccc(C2=Nc3ccccc3Oc3ccccc32)c1` [(Z)-3-(dibenzo[b,f][1,4]oxazepin-11-yl)-N-hydroxybenzamide], the IC50 was 0.1 to 1 µM in assay [1] (Table 8) and more than 15 µM in assay [2] (setting [3]).
Taken in the same sequence, the figures for `O=C(NO)c1ccc(C2=Nc3ccccc3Oc3ccccc32)nc1` [(E)-6-(dibenzo[b,f][1,4]oxazepin-11-yl)-N-hydroxynicotinamide] were 0.1 to 1 µM and 5 to 15 µM.
For `O=C(CCCCCN1C(=O)c2ccccc2Oc2ccccc21)NO` [N-hydroxy-6-(11-oxodibenzo[b,f][1,4]oxazepin-10(11H)-yl)hexanamide], the IC50 in assay [1] (Table 10) was less than 0.05 µM; in assay [2] (setting [4]), less than 1 µM.
As to `O=C(NO)c1cnc(N2C[C@@H]3C[C@H]2CN3C(=O)N2CCCC2)nc1` [N-hydroxy-2-((1S,4S)-5-(pyrrolidine-1-carbonyl)-2,5-diazabicyclo[2.2.1]heptan-2-yl)pyrimidine-5-carboxamide], the figures for the IC50 in assay [1] (Table 9) and in assay [2] (setting [5]) were 0.05 to 0.1 µM and less than 1 µM, respectively.
Consider `O=C(NO)c1cnc(N2CCN(C3c4ccccc4CCc4ccccc43)CC2)nc1`, for which the IC50 in assay [1] (Table 10) is 0.1 to 1 µM; in assay [2] (setting [4]), 5 to 15 µM.
As for `O=C(NO)c1ccc(C2=Nc3cc(Cl)ccc3Oc3ccccc32)cc1` [(Z)-4-(8-chlorodibenzo[b,f][1,4]oxazepin-11-yl)-N-hydroxybenzamide], the figures for the IC50 in assay [1] (Table 8) and in assay [2] (setting [3]) were 0.1 to 1 µM and 5 to 15 µM, respectively.
